Reference: PMC11513893, “Discovery of Oral Degraders of the ROS1 Fusion Protein with Potent Activity against Secondary Resistance Mutations” (Journal of Medicinal Chemistry, 2024)

Tests used:
[1] = Pharmacokinetics study in Sprague–Dawley rats; format: in vivo; settings: rat
Description: Four to 6 weeks old Sprague–Dawley rats [Crl: CD (SD)] (SPF/VAF) were purchased from Charles River (Wilmington MA). Animals were quarantined/acclimated for 2–6 weeks prior to dose initiation. Sprague–Dawley rats were given oral administration of test compounds (20% PG, 5% Solutol, and 75% of 20% HP-β-CD in water) at different dose levels. After treatment with the compounds, whole blood was collected from each study animal by puncture of the tail vein (0.4 mL of whole blood from rats) into tubes containing K2EDTA at each time point. The plasma samples were divided into 2 aliquots (approximately equal in volume) and stored frozen at −75 ± 15 °C within 2 h of the collection until analysis.
The stock solution of the test compound (0.01 M) in DMSO was prepared and stored at −20 ± 5 °C. The desired serial concentrations of working reference analyte solutions were achieved by diluting a stock analyte solution with 50% acetonitrile (0.1% formic acid) in water solution. The bioanalytical LC–MS/MS method was developed for quantitative determination of each test compound in Sprague–Dawley rat plasma with acceptable selectivity, sensitivity, calibration curve, precision, and accuracy. The analytical method is applicable for the determination of test compounds in Sprague–Dawley rat plasma with a lower limit of quantification of 10.0 ng/mL and an upper limit of quantification of 5000 ng/mL. Five microliters of diluted supernatant was injected into the LC–MS/MS system (TSQ Quantis) and a SynergiTM 4 μm Fusion-RP 80 Å (50 × 2 mm) column using gradient elution and a Triple Quad mass spectrometer) for quantitative analysis. The mobile phases used were 0.1% formic acid in deionized water and 0.1% formic acid in acetonitrile. The pharmacokinetic parameters T1/2 (the biological half-life), Cmax (maximal concentration), Tmax (time at which Cmax is observed), and AUC (area under the plasma concentration–time curve) were calculated from the plasma concentration versus time data using WinNonlin (PhoenixTM, version 8.1, Mountain View, CA, USA).

[2] = tested on: Ba/F3 CD74-ROS1 non mutant; assay: Antiproliferation assay (Alamar Blue, 72 h); format: cell-based, mouse; settings: Mus musculus, BaF3, 72 h, Ba/F3 cells, cell growth inhibition
ROS1 = ROS1 degradation in Ba/F3 cells (WES immunoblotting); format: cell-based
In short: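 ROS1 and phospho-ROS1 (Tyr2274/2334) in Ba/F3 lysates quantified by capillary immunoassay (WES) with chemiluminescent detection, duplicate experiments. Levels expressed as AUC of the chemiluminescence peak.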

Ba/F3 ROS1-G2032R = assay: Antiproliferation assay; format: cell-based, mouse; settings: Mus musculus, BaF3; Ba/F3 cells, cell growth inhibition, 72 h
Log P measurement = format: physicochemical
Source text: An important physicochemical property for a PROTAC molecule is its lipophilicity that largely dictates its pharmaceutical performance such as absorption, permeability, and distribution.

[3] = Metabolic stability in human microsomes; format: in vitro ADME; settings: human, pooled human microsomes, pH 7.4, 250 nM compound, NADPH, 37 °C
Description: (§1) Pooled human and rat microsomes were prepared and stored at −80 °C prior to use. A master-mix containing microsome, phosphate buffer, and test compound (9 series) solution was made as follows: (1) 3 μL of microsome (20 mg/mL) was diluted with mixed 30 μL of potassium phosphate buffer (pH 7.4; 10×) and 246 μL of water; (2) 3 μL of 25 μM drug solution was added to the microsome; (3) the master solution was prewarmed at 37 °C for 5 min. NADPH solution A (15 μL) and NADPH solution B (3 μL) from Promega were added to the above-mentioned master solution to initiate the reaction. The final concentration of 9 compounds in the reaction system was 250 nM. An aliquot of 20 μL was pipetted from the reaction solution and stopped by the addition of 180 μL of cold MeCN containing 25 ng of Tamoxifen-(N,N-dimethyl-13C2)-15N as an internal standard at the designated time points (0, 5, 15, 30, 45, and 60 min). The incubation solution was vortexed-mixed (800 rpm/10 min) and centrifuged at 3500 rpm for 10 min to precipitate proteins. The supernatant was collected and used for the LC/MS/MS analysis. The natural log of the remaining percentage of the test compound was plotted against time and the gradient of the line was determined.

[4] = Pharmacokinetics study in Sprague–Dawley rats; format: in vivo; settings: rat, 0.5 mg/kg iv
[5] = Metabolic stability in rat microsomes; format: in vitro ADME; settings: rat, pooled rat microsomes, pH 7.4, 250 nM compound, NADPH, 37 °C
Description: as §1

[6] = tested on: Ba/F3 ROS1 (SLC34A2) F2075C-G1837E; assay: Antiproliferation assay; format: cell-based; settings: Mus musculus, BaF3; Ba/F3 cell line
Description: (§2) Ba/F3 immortalized murine bone marrow–derived pro-B cells were obtained from Creative Biogene (Shirley, NY) and cultured in RPMI supplemented with 10% FBS and IL3 (0.5 ng/mL). Ba/F3 cells expressing ROS1 variants were maintained in RPMI supplemented with 10% FBS and puromycin (0.7 mg/mL). Crizotinib, ceritinib, brigatinib, repotrectinib, and lorlatinib were purchased from MedChem Express. Each compound was dissolved in DMSO and serially diluted in RPMI for cell culture experiments.
(§3) To assess the 72 h effect of drug treatment on cell proliferation, 2000 to 3000 cells were plated in replicates of three in 96-well plates. The plates were placed in an incubator at 37 °C, 5% CO2 for 72 h. Following drug treatments, the cells were incubated with the Alamar Blue Assay reagent (BioRad), 5 μL each well for 4 h at 37 °C and 5% CO2. Luminescence was measured on a multiplate reader and analyzed. […] IC50 values were determined using a nonlinear regression model with a sigmoidal dose response in GraphPad. The data were collected based on triplicate experiments, and presented as mean ± SD.

[7] = tested on: Ba/F3 ROS1 (SLC34A2) G2032R-F2075C; assay: Antiproliferation assay; format: cell-based; settings: Mus musculus, BaF3; Ba/F3 cell line
Description: as §2, §3

[8] = tested on: Ba/F3 ROS1 (SLC34A2) G2032R-D2113G; assay: Antiproliferation assay; format: cell-based; settings: Mus musculus, BaF3; Ba/F3 cell line
Description: as §2, §3

Ba/F3 ROS1 L2026M = assay: Antiproliferation assay; format: cell-based; settings: Mus musculus, BaF3; Ba/F3 cells, cell growth inhibition
Source text: (§4) To assess targeted degradation of ROS1 fusion proteins, we first established a mouse pro-B cell line Ba/F3 as a model expressing the CD74-ROS1 oncogene or CD74-ROS1 with clinically observed secondary/tertiary mutations. The Ba/F3 cell line is dependent on interleukin-3 for survival and proliferation. Upon transduction of oncogenic ROS1, Ba/F3 cells become independent of interleukin-3 but dependent on the transduced driver gene.
(§5) Ba/F3 immortalized murine bone marrow–derived pro-B cells were obtained from Creative Biogene (Shirley, NY) and cultured in RPMI supplemented with 10% FBS and IL3 (0.5 ng/mL). Ba/F3 cells expressing ROS1 variants were maintained in RPMI supplemented with 10% FBS and puromycin (0.7 mg/mL). […] Each compound was dissolved in DMSO and serially diluted in RPMI for cell culture experiments.
as §3
(§6) The resulting virus was used to infect Ba/F3 cells. After retroviral infection, Ba/F3 cells were selected by incubation with puromycin (0.7 mg/mL) for 2 weeks. For Ba/F3 cells infected by the CD74–ROS1 variants, IL3 was withdrawn from the culture medium at least 2 weeks before the experiments.

Ba/F3 ROS1 G2032R-F2075V = assay: Antiproliferation assay; format: cell-based; settings: Mus musculus, BaF3; Ba/F3 cells, cell growth inhibition
Source text: as §4, §5, §3, §6

Ba/F3 ROS1 D2033N = assay: Antiproliferation assay; format: cell-based; settings: Mus musculus, BaF3; Ba/F3 cells, cell growth inhibition
Source text: as §4, §5, §3, §6

Ba/F3 ROS1 L2086F = assay: Antiproliferation assay; format: cell-based; settings: Mus musculus, BaF3; Ba/F3 cells, cell growth inhibition
Source text: as §4, with “gene. The Ba/F3 models have been effectively employed in the discovery and preclinical development of next generation ROS1 inhibitors.[11],[14],[15] We have tested ROS1 inhibitors against these Ba/F3 cells to validate their sensitivity and resistance to ROS1 inhibition.” for “gene.”
as §2, §3
(§7) cDNA encoding CD74-ROS1 or mutant CD74–ROS1 was cloned into retroviral expression vectors (pLenti), and viruses were generated in HEK293T cells by transfecting with packaging plasmids. The resulting virus was used to infect Ba/F3 cells. After retroviral infection, Ba/F3 cells were selected by incubation with puromycin (0.7 mg/mL) for 2 weeks. For Ba/F3 cells infected by the CD74–ROS1 variants, IL3 was withdrawn from the culture medium at least 2 weeks before the experiments.

[9] = tested on: Ba/F3 ROS1 (SLC34A2) D2033N; assay: Antiproliferation assay; format: cell-based; settings: Mus musculus, BaF3; Ba/F3 cell line
Description: as §5, §3

[10] = tested on: Ba/F3 ROS1 (SLC34A2) G2032R-F2075 V; assay: Antiproliferation assay; format: cell-based; settings: Mus musculus, BaF3; Ba/F3 cell line
Description: as §5, §3

[11] = tested on: Ba/F3 ROS1 (SLC34A2) L2026M; assay: Antiproliferation assay; format: cell-based; settings: Mus musculus, BaF3; Ba/F3 cell line
Description: as §5, §3

[12] = tested on: Ba/F3 ROS1 (SLC34A2) G2032R; assay: Antiproliferation assay; format: cell-based; settings: Mus musculus, BaF3; Ba/F3 cell line
Description: as §5, §3

[13] = tested on: Ba/F3 ROS1 (CD74) S1986F-G2032R; assay: Antiproliferation assay; format: cell-based; settings: Mus musculus, BaF3; Ba/F3 cell line
Description: as §2, §3, §7

[14] = tested on: Ba/F3 ROS1 (CD74) S1986F-G2032R-L2086F; assay: Antiproliferation assay; format: cell-based; settings: Mus musculus, BaF3; Ba/F3 cell line
Description: as §2, §3, §7

Ba/F3 ROS1 (CD74) G2032R = assay: Antiproliferation assay; format: cell-based; settings: Mus musculus, BaF3; Ba/F3 cell line
Description: as §2, §3, §7

[15] = tested on: Ba/F3 ROS1 (CD74) S1986F-L2086F; assay: Antiproliferation assay; format: cell-based; settings: Mus musculus, BaF3; Ba/F3 cell line
Description: as §2, §3, §7

[16] = tested on: Ba/F3 ROS1 (CD74) G2032R-L2086F; assay: Antiproliferation assay; format: cell-based; settings: Mus musculus, BaF3; Ba/F3 cell line
Description: as §2, §3, §7

Ba/F3 ROS1 (CD74) L2086F = assay: Antiproliferation assay; format: cell-based; settings: Mus musculus, BaF3; Ba/F3 cell line
Description: as §2, §3, §7

[17] = tested on: Ba/F3 ROS1 (SLC34A2) V2098I; assay: Antiproliferation assay; format: cell-based; settings: Mus musculus, BaF3; Ba/F3 cell line
Description: as §5, §3

| Compound | IC50 (Ba/F3 ROS1-G2032R) | IC50 [6] | IC50 [7] | IC50 [8] | IC50 (Ba/F3 ROS1 L2086F) | IC50 [13] | IC50 [14] | IC50 (Ba/F3 ROS1 (CD74) G2032R) | IC50 [15] | IC50 [16] | IC50 (Ba/F3 ROS1 (CD74) L2086F) | other results |
| --- | --- | --- | --- | --- | --- | --- | --- | --- | --- | --- | --- | --- |
| COc1cc(N2CCN(CC3CN(c4ccc5c(c4)CN(C4CCC(=O)NC4=O)C5=O)C3)CC2)ccc1Nc1ncc(Cl)c(Nc2ccccc2P(C)(C)=O)n1 (centres unmarked) [9m, 3-(5-(3-((4-(4-((5-Chloro-4-((2-(dimethylphosphoryl)phenyl)amino)pyrimidin-2-yl)amino)-3-methoxyphenyl)piperazin-1-yl)methyl)azetidin-1-yl)-1-oxoisoindolin-2-yl)piperidine-2,6-dione] | 120 ± 27 nM |  |  |  |  |  |  |  |  |  |  | Cmax at 24 h ([1]; Sprague-Dawley [Crl: CD (SD)], plasma, 5 mg/kg po): 145 ng/mL; bioavailability ([1]; Sprague-Dawley [Crl: CD (SD)], plasma, 5 mg/kg po vs 0.5 mg/kg iv): 4.8%; AUC (po) ([1]; 5 mg/kg po): 1032 ng·h/mL; T1/2 ([1]; 5 mg/kg po): 8.88 h; Tmax ([1]; 5 mg/kg po): 1 h; IC50 [2]: 8 ± 0.9 nM; DC50 (ROS1; concentration needed to reduce ROS1 protein by 50%, Ba/F3 cells): 9 nM; Dmax (%) (ROS1) (ROS1; maximal degradation of ROS1 in Ba/F3 cells): 94%; logP (Log P measurement): 3.07; microsomal CLint at 1 h, 0.25 µM [3]: 94.5 µL/min/mg; half-life at 1 h, 0.25 µM ([3]; read-out: metabolic stability in human microsomes T1/2): 0.615 h; AUC (iv) [4]: 2151 ng·h/mL; microsomal CLint at 1 h, 0.25 µM [5]: 9.6 µL/min/mg; half-life at 1 h, 0.25 µM ([5]; read-out: metabolic stability in rat microsomes T1/2): 2.41 h |
| COc1cc(N2CCC(N3CCN(C)CC3)CC2)ccc1Nc1ncc(Cl)c(Nc2ccccc2P(C)(C)=O)n1 [brigatinib] | 265 ± 73 nM | 8.1 ± 2.2 nM | 869 ± 148 nM | 215 ± 50.3 nM | 172 ± 24 nM | 488 ± 96.8 nM | > 2000 nM | 513 ± 118 nM | 329 ± 85.5 nM | 694 ± 204 nM | 172 ± 47.6 nM | IC50 (Ba/F3 ROS1 L2026M): 48 ± 4 nM; IC50 (Ba/F3 ROS1 G2032R-F2075V): 327 ± 43 nM; IC50 (Ba/F3 ROS1 D2033N): 114 ± 17 nM; IC50 [9]: 114 ± 25.3 nM; IC50 [10]: 327 ± 44.8 nM; IC50 [11]: 47.8 ± 10.2 nM; IC50 [12]: 490 ± 38.4 nM |
| C[C@H]1CNC(=O)c2cnn3ccc(nc23)N[C@H](C)c2cc(F)ccc2O1 [repotrectinib] |  | 0.4 ± 0.2 nM | > 2000 nM | 25 ± 6.8 nM | > 2000 nM | 31.4 ± 7.3 nM | > 2000 nM | 23.5 ± 3.8 nM | > 2000 nM | 181 ± 22.5 nM | 588 ± 76 nM | IC50 [17]: 3.5 ± 0.6 nM |
